Holding throughout (assay): biochemical
Design in all cases: in vitro kinase selectivity panel, protein and lipid kinases, single concentration, ATP at Km
Settings in all cases: ATP at Km

One assay has as its target T1, AMPKα1(h) (Homo sapiens, UniProt Q13131).
T1 construct: gene PRKAA1
A digest of the protocol: (§1)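 Single-point screen against a protein and lipid kinase panel: inhibitor at 1 μM. ATP concentration for every kinase equivalent to its Km.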

The target of a further assay is CDK1/cyclinB(h) (Homo sapiens, UniProt P06493). A digest of the protocol: as §1
The target in another assay is T2, CK1γ1(h) (Homo sapiens, UniProt Q9HCP0).
T2 construct: gene CSNK1G1
In a few lines: as §1

The next assay concerns the target FGFR1(h) (Homo sapiens, UniProt P11362). A digest of the protocol:
as §1

In a further assay the target is Flt1(h) (Homo sapiens, UniProt P17948). In a few lines:
as §1

In a further assay the target is Flt3(D835Y)(h) (Homo sapiens, UniProt P36888, D835Y). A digest of the protocol: as §1
The target in another assay is Flt3(h) (Homo sapiens, UniProt P36888). A digest of the protocol: as §1
In the next assay the target is HIPK3(h) (Homo sapiens, UniProt Q9H422). A digest of the protocol:
as §1

The target of a further assay is T3, MAPKAP-K2(h) (Homo sapiens, UniProt P49137).
T3 construct: gene MAPKAPK2
A digest of the protocol: as §1

In a further assay the target is MELK(h) (Homo sapiens, UniProt Q14680). A digest of the protocol: as §1
The next assay deals with T4, Mer(h) (Homo sapiens, UniProt Q12866).
T4 construct: gene MERTK
In a few lines: as §1

Another assay addresses T5, PIK3CG / p85 (h) (Homo sapiens, UniProt P48736).
T5 construct: p110gamma/p85 as printed
In a few lines:
as §1

A further assay deals with T6, PIK4A (Homo sapiens, UniProt P42356).
T6 construct: gene PI4KA
In a few lines:
as §1

A further assay has as its target T7, ROCK-II(h) (Homo sapiens, UniProt O75116).
T7 construct: gene ROCK2
In a few lines: as §1

In a further assay the target is Ret(h) (Homo sapiens, UniProt P07949). In a few lines:
as §1

In another assay the target is T8, Snk(h) (Homo sapiens, UniProt Q9NYY3).
T8 construct: gene PLK2
In a few lines:
as §1

The target of a further assay is T9, cKit(V560G)(h) (Homo sapiens, UniProt P10721, V560G).
T9 construct: gene KIT
A digest of the protocol: as §1

T2 sequence (Q9HCP0 whole entry): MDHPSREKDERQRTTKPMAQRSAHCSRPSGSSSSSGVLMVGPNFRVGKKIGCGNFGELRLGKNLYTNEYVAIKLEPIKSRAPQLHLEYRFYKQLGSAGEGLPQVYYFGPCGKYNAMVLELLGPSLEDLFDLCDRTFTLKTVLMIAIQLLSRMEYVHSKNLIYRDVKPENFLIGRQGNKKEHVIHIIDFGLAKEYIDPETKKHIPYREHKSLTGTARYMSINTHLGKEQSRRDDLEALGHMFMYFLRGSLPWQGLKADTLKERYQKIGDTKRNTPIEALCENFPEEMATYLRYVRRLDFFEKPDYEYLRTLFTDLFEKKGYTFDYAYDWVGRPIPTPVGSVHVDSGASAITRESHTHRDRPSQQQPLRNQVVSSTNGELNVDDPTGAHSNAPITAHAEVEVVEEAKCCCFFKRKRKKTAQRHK
T7 sequence (O75116 whole entry): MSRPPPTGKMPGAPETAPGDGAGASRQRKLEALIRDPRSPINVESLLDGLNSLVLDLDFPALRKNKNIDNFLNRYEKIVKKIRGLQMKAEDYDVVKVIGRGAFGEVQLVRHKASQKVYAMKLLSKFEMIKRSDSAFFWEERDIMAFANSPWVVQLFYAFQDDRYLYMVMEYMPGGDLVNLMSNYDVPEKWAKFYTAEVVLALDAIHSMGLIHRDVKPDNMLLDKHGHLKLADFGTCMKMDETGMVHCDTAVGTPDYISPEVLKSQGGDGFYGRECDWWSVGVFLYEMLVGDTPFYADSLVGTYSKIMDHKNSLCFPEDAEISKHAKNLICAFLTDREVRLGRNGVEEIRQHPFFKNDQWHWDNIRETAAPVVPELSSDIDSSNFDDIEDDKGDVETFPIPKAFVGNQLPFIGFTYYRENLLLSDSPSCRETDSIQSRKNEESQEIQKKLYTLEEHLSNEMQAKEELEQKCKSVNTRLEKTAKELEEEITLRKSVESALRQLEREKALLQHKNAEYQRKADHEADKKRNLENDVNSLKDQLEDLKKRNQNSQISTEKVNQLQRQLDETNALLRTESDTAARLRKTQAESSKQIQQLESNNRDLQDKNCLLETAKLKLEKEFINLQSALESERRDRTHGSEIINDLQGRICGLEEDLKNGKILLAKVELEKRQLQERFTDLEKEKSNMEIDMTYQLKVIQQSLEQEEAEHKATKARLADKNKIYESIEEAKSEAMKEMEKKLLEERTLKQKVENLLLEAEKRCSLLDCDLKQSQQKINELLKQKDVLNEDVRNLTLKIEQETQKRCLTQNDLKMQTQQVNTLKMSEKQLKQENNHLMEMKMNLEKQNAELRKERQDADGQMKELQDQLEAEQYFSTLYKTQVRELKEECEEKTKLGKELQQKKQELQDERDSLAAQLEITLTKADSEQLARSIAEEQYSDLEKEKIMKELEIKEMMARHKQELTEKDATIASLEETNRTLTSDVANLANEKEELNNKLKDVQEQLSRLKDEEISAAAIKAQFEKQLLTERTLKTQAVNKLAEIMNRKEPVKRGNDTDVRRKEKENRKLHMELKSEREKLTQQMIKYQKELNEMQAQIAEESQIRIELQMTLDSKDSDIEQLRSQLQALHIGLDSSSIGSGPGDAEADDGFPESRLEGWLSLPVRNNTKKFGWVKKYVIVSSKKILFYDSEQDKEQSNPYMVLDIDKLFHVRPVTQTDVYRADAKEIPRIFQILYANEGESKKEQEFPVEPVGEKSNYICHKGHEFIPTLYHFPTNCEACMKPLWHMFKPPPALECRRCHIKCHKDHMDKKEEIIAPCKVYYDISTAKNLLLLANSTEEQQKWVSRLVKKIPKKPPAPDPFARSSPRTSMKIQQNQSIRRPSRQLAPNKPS
Chain of Flt1(h) (P17948 whole entry): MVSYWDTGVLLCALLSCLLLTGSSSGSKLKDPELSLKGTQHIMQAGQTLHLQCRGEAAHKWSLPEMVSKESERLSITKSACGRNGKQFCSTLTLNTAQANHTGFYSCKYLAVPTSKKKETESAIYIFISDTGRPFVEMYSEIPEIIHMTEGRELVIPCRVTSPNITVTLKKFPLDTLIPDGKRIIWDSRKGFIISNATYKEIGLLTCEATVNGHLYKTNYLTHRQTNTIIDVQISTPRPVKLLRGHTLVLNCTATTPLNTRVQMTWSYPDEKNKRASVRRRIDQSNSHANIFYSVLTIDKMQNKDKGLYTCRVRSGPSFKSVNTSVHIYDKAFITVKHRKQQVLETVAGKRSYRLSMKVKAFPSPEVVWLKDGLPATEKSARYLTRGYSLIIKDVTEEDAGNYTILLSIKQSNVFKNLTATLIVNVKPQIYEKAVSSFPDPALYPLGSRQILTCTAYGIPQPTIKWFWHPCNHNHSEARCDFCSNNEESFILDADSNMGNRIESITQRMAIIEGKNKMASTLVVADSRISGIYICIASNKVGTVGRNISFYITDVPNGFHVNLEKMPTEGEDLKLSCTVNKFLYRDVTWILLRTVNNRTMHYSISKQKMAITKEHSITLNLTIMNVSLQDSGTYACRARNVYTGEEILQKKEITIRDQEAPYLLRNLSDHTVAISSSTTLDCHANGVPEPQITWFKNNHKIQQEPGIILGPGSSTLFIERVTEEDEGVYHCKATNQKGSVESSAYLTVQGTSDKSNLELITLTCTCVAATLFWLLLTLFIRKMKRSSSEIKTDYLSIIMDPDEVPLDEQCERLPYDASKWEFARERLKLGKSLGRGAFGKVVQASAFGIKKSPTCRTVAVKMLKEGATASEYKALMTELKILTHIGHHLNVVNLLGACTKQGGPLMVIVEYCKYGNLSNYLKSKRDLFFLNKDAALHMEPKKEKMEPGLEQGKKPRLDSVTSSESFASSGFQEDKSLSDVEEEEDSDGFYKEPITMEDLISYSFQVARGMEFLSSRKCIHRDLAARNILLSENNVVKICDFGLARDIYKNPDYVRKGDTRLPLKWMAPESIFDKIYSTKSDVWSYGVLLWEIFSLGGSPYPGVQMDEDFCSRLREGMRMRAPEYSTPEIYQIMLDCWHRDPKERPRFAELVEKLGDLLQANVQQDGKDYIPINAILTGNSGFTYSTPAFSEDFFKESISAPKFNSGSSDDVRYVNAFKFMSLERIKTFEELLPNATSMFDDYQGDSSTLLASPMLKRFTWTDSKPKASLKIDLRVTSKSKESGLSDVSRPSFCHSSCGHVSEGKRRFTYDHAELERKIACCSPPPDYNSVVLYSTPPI
T8 sequence (Q9NYY3 whole entry): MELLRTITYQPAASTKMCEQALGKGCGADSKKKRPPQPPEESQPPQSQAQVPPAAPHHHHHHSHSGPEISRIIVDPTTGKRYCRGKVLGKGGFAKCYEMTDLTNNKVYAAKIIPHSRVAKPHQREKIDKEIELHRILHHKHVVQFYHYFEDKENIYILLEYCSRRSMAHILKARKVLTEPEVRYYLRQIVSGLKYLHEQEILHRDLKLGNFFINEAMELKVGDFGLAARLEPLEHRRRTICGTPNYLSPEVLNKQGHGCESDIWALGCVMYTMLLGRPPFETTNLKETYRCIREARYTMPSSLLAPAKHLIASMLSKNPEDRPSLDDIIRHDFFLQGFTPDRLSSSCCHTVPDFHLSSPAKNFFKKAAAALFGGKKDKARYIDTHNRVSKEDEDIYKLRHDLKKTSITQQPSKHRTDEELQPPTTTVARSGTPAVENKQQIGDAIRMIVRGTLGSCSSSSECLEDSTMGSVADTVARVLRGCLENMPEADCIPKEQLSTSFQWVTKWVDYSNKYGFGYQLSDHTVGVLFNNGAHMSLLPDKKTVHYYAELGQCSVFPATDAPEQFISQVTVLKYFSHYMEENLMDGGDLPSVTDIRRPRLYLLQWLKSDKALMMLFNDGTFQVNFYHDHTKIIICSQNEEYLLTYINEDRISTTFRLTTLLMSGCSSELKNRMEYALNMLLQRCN
Chain of MELK(h) (Q14680 whole entry): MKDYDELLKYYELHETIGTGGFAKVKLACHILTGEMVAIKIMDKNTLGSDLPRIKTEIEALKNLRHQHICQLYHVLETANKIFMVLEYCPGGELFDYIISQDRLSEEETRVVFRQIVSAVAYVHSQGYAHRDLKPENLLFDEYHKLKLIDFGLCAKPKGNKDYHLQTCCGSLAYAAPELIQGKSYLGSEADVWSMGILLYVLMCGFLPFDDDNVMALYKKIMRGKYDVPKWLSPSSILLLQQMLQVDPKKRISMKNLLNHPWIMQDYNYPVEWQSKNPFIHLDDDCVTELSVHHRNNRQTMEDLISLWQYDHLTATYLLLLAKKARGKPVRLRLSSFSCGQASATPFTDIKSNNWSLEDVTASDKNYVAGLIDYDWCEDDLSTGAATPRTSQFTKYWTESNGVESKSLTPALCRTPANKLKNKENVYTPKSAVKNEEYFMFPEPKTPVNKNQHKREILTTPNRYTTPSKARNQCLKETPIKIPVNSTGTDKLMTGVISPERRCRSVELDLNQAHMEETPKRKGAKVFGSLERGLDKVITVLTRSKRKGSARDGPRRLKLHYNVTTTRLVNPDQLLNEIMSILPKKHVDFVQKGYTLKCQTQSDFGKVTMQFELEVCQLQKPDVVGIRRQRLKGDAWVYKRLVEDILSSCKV
T3 sequence (P49137 whole entry): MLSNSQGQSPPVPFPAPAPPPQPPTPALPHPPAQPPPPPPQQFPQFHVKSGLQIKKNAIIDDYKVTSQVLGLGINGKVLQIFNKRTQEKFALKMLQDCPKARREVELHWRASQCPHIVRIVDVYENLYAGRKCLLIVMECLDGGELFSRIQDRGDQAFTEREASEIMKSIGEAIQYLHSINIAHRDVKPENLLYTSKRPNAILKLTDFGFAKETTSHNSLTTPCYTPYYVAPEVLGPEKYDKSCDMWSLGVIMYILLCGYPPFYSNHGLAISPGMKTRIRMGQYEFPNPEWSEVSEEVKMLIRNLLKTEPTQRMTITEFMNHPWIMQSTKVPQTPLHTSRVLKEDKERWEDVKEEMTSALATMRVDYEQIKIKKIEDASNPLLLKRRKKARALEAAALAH

Turning to `CC[C@@H](N)CNc1ccnc(-c2cc(-c3cnn(C)c3)ccc2O)n1` [CRT0066101], the inhibition at 1 µM against AMPKα1(h) was 17%; on CDK1/cyclinB(h) it was 63%; against CK1γ1(h) it was -5%; against FGFR1(h), -30%; against Flt1(h), -6%; against Flt3(D835Y)(h), 80%. Moreover, the inhibition at 1 µM was 4% against Flt3(h); 14% on HIPK3(h); -9% at MAPKAP-K2(h); 55% at MELK(h); 66% against Mer(h); -1% on PIK3CG / p85 (h). The inhibition at 1 µM was -11% against PIK4A; 28% at ROCK-II(h); 0% on Ret(h); -1% on Snk(h); 24% against cKit(V560G)(h).

Usually inhibition stands for the relative decrease from the control value, in per cent.

The values are drawn from publication PMC5391474, “Investigation of the Role of Protein Kinase D in Human Rhinovirus Replication” (Journal of Virology, 2017).
